Reference: ChEMBL document CHEMBL1649544, “Novel ABC transporter gene, vga(C), located on a multiresistance plasmid from a porcine methicillin-resistant Staphylococcus aureus ST398 strain” (2009)
≈ marks a conversion by molar mass, not a printed value.

What was measured:
Type in all cases: functional
Staphylococcus aureus [1] = assay: Antibacterial activity against Staphylococcus aureus RN4220 harboring aadD and tet(L) gene by CLSI method
Staphylococcus aureus [2] = assay: Antibacterial activity against Staphylococcus aureus RN4220 by CLSI method
Staphylococcus aureus [3] = assay: Antibacterial activity against Staphylococcus aureus RN4220 harboring aadD, tet(L), dfrK and vga(C) gene by CLSI method
Staphylococcus aureus [4] = assay: Antibacterial activity against Staphylococcus aureus RN4220 harboring tet(L), dfrK gene by CLSI method

Row | Compound | MIC (Staphylococcus aureus [1]) [µg/mL] | MIC (Staphylococcus aureus [2]) [µg/mL] | MIC (Staphylococcus aureus [3]) [µg/mL] | MIC (Staphylococcus aureus [4]) [µg/mL]
1 | CCC[C@@H]1C[C@@H](C(=O)N[C@@H]([C@H]2O[C@H](SC)[C@H](O)[C@@H](O)[C@H]2O)[C@@H](C)O)N(C)C1 [LINCOMYCIN] | 1 (≈ 2.46 µM) | 1 (≈ 2.46 µM) | 64 (≈ 157 µM) | 1 (≈ 2.46 µM)
2 | CCC[C@@H]1C[C@@H](C(=O)N[C@@H]([C@H]2O[C@H](SC)[C@H](O)[C@@H](O)[C@H]2O)[C@H](C)Cl)N(C)C1 [CLINDAMYCIN] |  | ≤ 0.12 | 2 (≈ 4.71 µM) | 
3 | CN(C)[C@@H]1C(O)=C(C(N)=O)C(=O)[C@@]2(O)C(O)=C3C(=O)c4c(O)cccc4[C@@](C)(O)[C@H]3C[C@@H]12 [TETRACYCLINE] | 64 (≈ 144 µM) | 0.06 (≈ 0.135 µM) | 64 (≈ 144 µM) | 64 (≈ 144 µM)
4 | C=C[C@]1(C)C[C@@H](OC(=O)CSCCN(CC)CC)[C@]2(C)[C@H](C)CC[C@]3(CCC(=O)[C@H]32)[C@@H](C)[C@@H]1O [TIAMULIN] | 0.06 (≈ 0.122 µM) | 0.06 (≈ 0.122 µM) | ≥ 128 | 0.06 (≈ 0.122 µM)
5 | CC1=C\[C@@H](O)CC(=O)Cc2nc(co2)C(=O)N2CCC=C2C(=O)O[C@H](C(C)C)[C@H](C)/C=C/C(=O)NC\C=C\1 [VIRGINIAMYCIN FACTOR M1] | 4 (≈ 7.61 µM) | 4 (≈ 7.61 µM) | 32 (≈ 60.9 µM) | 4 (≈ 7.61 µM)
6 | C=C[C@]1(C)C[C@@H](OC(=O)CSC(C)(C)CNC(=O)[C@H](N)C(C)C)[C@]2(C)[C@H](C)CC[C@]3(CCC(=O)[C@H]32)[C@@H](C)[C@@H]1O [VALNEMULIN] | 0.03 (≈ 0.0531 µM) | 0.03 (≈ 0.0531 µM) | ≥ 128 | 0.03 (≈ 0.0531 µM)
7 | CC[C@H]1OC(=O)[C@H](C)[C@@H](O[C@H]2C[C@@](C)(OC)[C@@H](O)[C@H](C)O2)[C@H](C)[C@@H](O[C@@H]2O[C@H](C)C[C@H](N(C)C)[C@H]2O)[C@](C)(O)C[C@@H](C)C(=O)[C@H](C)[C@@H](O)[C@]1(C)O [ERYTHROMYCIN] | 0.25 (≈ 0.341 µM) | 0.25 (≈ 0.341 µM) | 0.25 (≈ 0.341 µM) | 0.25 (≈ 0.341 µM)
8 | NC[C@H]1O[C@H](O[C@H]2[C@H](O)[C@@H](O[C@H]3O[C@H](CO)[C@@H](O)[C@H](N)[C@H]3O)[C@H](N)C[C@@H]2N)[C@H](O)[C@@H](O)[C@@H]1O [KANAMYCIN] | 32 (≈ 66 µM) | 4 (≈ 8.26 µM) | 32 (≈ 66 µM) | 4 (≈ 8.26 µM)
9 | CC[C@@H]1CCN[C@H](C(=O)N[C@@H]([C@H]2O[C@H](SC)[C@H](O)[C@@H](O)[C@H]2O)[C@H](C)Cl)C1 [PIRLIMYCIN] | 0.25 (≈ 0.608 µM) | 0.25 (≈ 0.608 µM) | 4 (≈ 9.73 µM) | 0.25 (≈ 0.608 µM)
10 | COc1cc(Cc2cnc(N)nc2N)cc(OC)c1OC [TRIMETHOPRIM] | 0.5 (≈ 1.72 µM) | 0.5 (≈ 1.72 µM) | ≥ 512 | ≥ 512
11 | NC[C@@H]1O[C@H](O[C@H]2[C@@H](O)[C@H](O[C@@H]3[C@@H](O)[C@H](N)C[C@H](N)[C@H]3O[C@H]3O[C@H](CN)[C@@H](O)[C@H](O)[C@H]3N)O[C@@H]2CO)[C@H](N)[C@@H](O)[C@@H]1O [FRAMYCETIN] | 64 (≈ 104 µM) | ≤ 1 | 64 (≈ 104 µM) | 
